From the supplement of paper PMC10307832

What was measured:
Experiment in all cases: relative viability (nuclei count vs DMSO), 5 days (fraction); higher = more cells survive
R406 + AZD7762 = compound: COc1cc(Nc2ncc(F)c(Nc3ccc4c(n3)NC(=O)C(C)(C)O4)n2)cc(OC)c1OC [R406] + NC(=O)Nc1cc(-c2cccc(F)c2)sc1C(=O)N[C@H]1CCCNC1 [AZD7762] (partner 0.2 µM)
Summary of the method: (§1)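 Lung cancer cell lines in 1536-well plates got either a single drug or a fixed anchor-drug dose together with five library-drug doses (not always all listed) in √10 steps, by pin tool, on the day after seeding. Nuclei were counted after 5 days, and relative viability is the treated-to-vehicle ratio of nuclei counts. Values are medians of duplicate plates.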

R406 + Olaparib = compound: COc1cc(Nc2ncc(F)c(Nc3ccc4c(n3)NC(=O)C(C)(C)O4)n2)cc(OC)c1OC [R406] + O=C(c1cc(Cc2n[nH]c(=O)c3ccccc23)ccc1F)N1CCN(C(=O)C2CC2)CC1 [Olaparib] (partner 8 µM)
Summary of the method: as §1

Daporinad + Crizotinib = compound: O=C(/C=C/c1cccnc1)NCCCCC1CCN(C(=O)c2ccccc2)CC1 [Daporinad] + C[C@@H](Oc1cc(-c2cnn(C3CCNCC3)c2)cnc1N)c1c(Cl)ccc(F)c1Cl [Crizotinib] (partner 1 µM)
Summary of the method: as §1

Daporinad + Foretinib = compound: O=C(/C=C/c1cccnc1)NCCCCC1CCN(C(=O)c2ccccc2)CC1 [Daporinad] + COc1cc2c(Oc3ccc(NC(=O)C4(C(=O)Nc5ccc(F)cc5)CC4)cc3F)ccnc2cc1OCCCN1CCOCC1 [Foretinib] (partner 0.25 µM)
Summary of the method: as §1

Cell Line | relative viability (R406 + AZD7762; first compound 0.08 µM) | relative viability (R406 + AZD7762; first compound 0.253 µM) | relative viability (R406 + AZD7762; first compound 0.8 µM) | relative viability (R406 + AZD7762; first compound 2.53 µM) | relative viability (R406 + AZD7762; first compound 8 µM) | relative viability (R406 + Olaparib; first compound 0.08 µM) | relative viability (R406 + Olaparib; first compound 0.253 µM) | relative viability (R406 + Olaparib; first compound 0.8 µM) | relative viability (R406 + Olaparib; first compound 2.53 µM) | relative viability (R406 + Olaparib; first compound 8 µM) | relative viability (Daporinad + Crizotinib; first compound 0.0005 µM) | relative viability (Daporinad + Crizotinib; first compound 0.001581 µM) | relative viability (Daporinad + Crizotinib; first compound 0.005 µM) | relative viability (Daporinad + Crizotinib; first compound 0.01581 µM) | relative viability (Daporinad + Foretinib; first compound 0.0005 µM) | relative viability (Daporinad + Foretinib; first compound 0.001581 µM) | relative viability (Daporinad + Foretinib; first compound 0.005 µM) | relative viability (Daporinad + Foretinib; first compound 0.01581 µM)
HCC-44 | 0.974 | 1.01 | 0.995 | 1.03 | 1.18 | 0.95 | 1 | 0.954 | 0.989 | 1.06 | 0.768 | 0.787 | 0.899 | 0.747 | – | – | – | –
IA-LM | – | – | – | – | – | 0.835 | 1.03 | 0.913 | 0.986 | 0.882 | 0.734 | 0.917 | 1.05 | 0.82 | 1.06 | 1.12 | 1.29 | 1.26
NCI-H520 | – | – | – | – | – | 0.314 | 0.34 | 0.329 | 0.194 | 0.126 | 0.789 | 0.726 | 0.258 | 0.114 | 0.815 | 0.384 | 0.324 | 0.181
NCI-H522 | 0.914 | 0.921 | 0.813 | 0.823 | 0.765 | 0.518 | 0.578 | 0.713 | 0.636 | 0.511 | – | – | – | – | – | – | – | –
NCI-H661 | – | – | – | – | – | 0.731 | 0.783 | 0.673 | 0.697 | 0.591 | 0.975 | 0.998 | 1.04 | 0.52 | 0.999 | 1.03 | 0.671 | 0.573
NCI-H1299 | – | – | – | – | – | 0.972 | 0.986 | 0.957 | 1.05 | 0.731 | 0.969 | 0.963 | 0.974 | 1.01 | 1.12 | 1.08 | 1.14 | 1.04
NCI-H1395 | 0.427 | 0.354 | 0.351 | 0.417 | 0.36 | 0.455 | 0.475 | 0.444 | 0.421 | 0.362 | – | – | – | – | 1.08 | 0.954 | 1.01 | 1.15
NCI-H1563 | – | – | – | – | – | – | – | – | – | – | 0.85 | 0.857 | 0.772 | 0.623 | 0.893 | 0.972 | 0.999 | 0.86
NCI-H1623 | – | – | – | – | – | – | – | – | – | – | – | – | – | – | 0.726 | 0.754 | 0.801 | 0.866
NCI-H1648 | 0.719 | 0.618 | 0.67 | 0.554 | 0.633 | 0.758 | 1.06 | 0.906 | 0.886 | 0.884 | – | – | – | – | – | – | – | –
NCI-H1650 | – | – | – | – | – | 0.911 | 0.808 | 0.798 | 0.787 | 0.647 | 1.12 | 1.09 | 1 | 0.764 | 1.29 | 1.21 | 1.13 | 0.498
NCI-H1792 | 0.75 | 0.615 | 0.908 | 0.283 | 0.378 | 0.456 | 0.402 | 0.491 | 0.189 | 0.194 | 0.916 | 1.01 | 0.844 | 0.976 | – | – | – | –
NCI-H1793 | 0.471 | 0.368 | 0.415 | 0.283 | 0.413 | 0.781 | 0.794 | 0.946 | 0.356 | 0.144 | – | – | – | – | 0.738 | 0.868 | 0.956 | 0.807
NCI-H2009 | – | – | – | – | – | 0.687 | 0.706 | 0.844 | 0.489 | 0.546 | 1.02 | 1.04 | 1.06 | 0.827 | 1.16 | 1.24 | 1.23 | 0.897
NCI-H2023 | – | – | – | – | – | 0.437 | 0.49 | 0.474 | 0.4 | 0.163 | 0.612 | 0.595 | 0.631 | 0.59 | 0.818 | 0.682 | 0.743 | 0.975
NCI-H2228 | – | – | – | – | – | 0.487 | 0.731 | 0.848 | 0.341 | 0.238 | 0.505 | 0.548 | 0.625 | 0.636 | 0.904 | 0.82 | 1.24 | 1.09
NCI-H2342 | 0.505 | 0.53 | 0.476 | 0.433 | 0.392 | 0.395 | 0.415 | 0.447 | 0.355 | 0.439 | – | – | – | – | 1.09 | 0.974 | 1.01 | 0.969
SK-LU-1 | – | – | – | – | – | 0.441 | 0.44 | 0.464 | 0.249 | 0.213 | 0.942 | 0.958 | 1.18 | 0.892 | 0.908 | 0.872 | 0.922 | 0.829
SK-MES-1 | – | – | – | – | – | 0.613 | 0.677 | 0.715 | 0.327 | 0.174 | 0.959 | 1.01 | 1.12 | 0.9 | 0.837 | 1.19 | 0.916 | 1.21
SW 900 | 0.536 | 0.814 | 0.787 | 0.232 | 0.146 | 0.956 | 0.855 | 0.57 | 0.492 | 0.115 | – | – | – | – | 0.881 | 0.765 | 0.885 | 0.709
SW 1573 | – | – | – | – | – | 0.492 | 0.57 | 0.607 | 0.399 | 0.158 | 0.834 | 0.831 | 0.728 | 0.479 | 0.962 | 0.701 | 1.06 | 0.744
